Measured values: US10287328B2, “Treatment of diabetes, toll-like receptor 4 modulators and methods for using the same” (KeMyth Biotech Co., Ltd., priority 2016, dated 2019)

Tests used:
[1] = Blood glucose level in HFD-induced, STZ-injected type 2 diabetic rats; assay type: in vivo, Sprague-Dawley rats; conditions: STZ-injected HFD-fed rats, 2 mg/kg/3 days i.p. for 30 days, compared to STZ+vehicle
Procedure: The Sprague-Dawley rats were allocated to two dietary regimens by feeding either normal or HFD ad libitum, for the initial period of 2 weeks. After 2 weeks of dietary manipulation, the group of rats fed HFD were injected intraperitoneally (i.p.) with a low dose of STZ (35 mg/kg b.w.), while the respective control rats were given vehicle citrate buffer (pH 4.5) in a dose volume of 1 mL/kg, i.p. Seven days after STZ injection, rats were screened for blood glucose levels. Overnight fasted (10-12 hours) animals were given glucose (3 g/kg b.w.) by gastric intubation. After 2 hours of oral administration, blood samples were taken from lateral tail vein, left to coagulate and centrifuged; then serum glucose concentration was measured. Rats having serum glucose ≥200 mg/dL after 2 hours of glucose intake were considered diabetic and selected for further pharmacological studies. The rats were allowed to continue to feed on their respective diets until the end of the study (16). […]
Blood Glucose Test Strips and Blood Glucose Monitoring System were used to determine whole blood glucose levels on a drop of tail blood collected between 10 am and midday. Glucose concentration was determined colorimetrically using a glucose oxidase/peroxidase reagent kit. Samples were incubated with 100 μl of assay reagent at 37° C. for 30 min and measured at 540 nm. […]

[2] = Blood glucose level in C57BL/KsJ-db/db diabetic mice; assay type: in vivo; conditions: 2 mg/kg/3 days i.p. for 30 days, compared with control group, after week 2
Procedure: Male C57BL/KsJ-db/db mice (diabetic deficiency knockout mice) at 5 weeks of age (23 g) were fed a pelletized commercial chow diet for acclimation from the arrival for 2 weeks. […]. They were given free access to food and distilled water, and the food consumption and body weight gain were measured daily and weekly, respectively. […]; and (2) group 2 served as diabetic mice administered C70PLY4 (2 mg/kg/3 days) in aqueous suspension i.p. for 30 days (C70PLY4). […] The blood was centrifuged at 1000 g for 15 min at 4° C., and plasma and erythrocyte were separated. The livers and adipose tissues were removed, washed, weighted, and frozen at −70° C. until analyzed.
Blood Glucose Test Strips and Blood Glucose Monitoring System were used to determine whole blood glucose levels on a drop of tail blood collected between 10 am and midday. Glucose concentration was determined colorimetrically using a glucose oxidase/peroxidase reagent kit. Samples were incubated with 100 μl of assay reagent at 37° C. for 30 min and measured at 540 nm. Values were expressed in mg/dL.

[3] = system: ERK1/2 and NFκB-p65 subunit phosphorylation; experiment: Western blot of LPS-induced ERK1/2 and NFκB-p65 phosphorylation in HUVECs; assay type: cell-based, human; conditions: LPS 1 μg/mL plus C70PLY4 100, 300 and 500 nM, 24 h
Procedure: Cells were kept as the control, treated with LPS (1 μg/mL), or co-treated with LPS (1 μg/mL) and C70PLY4 (100, 300, and 500 nM) for 24 h and the phosphorylation of ERK1/2 and NFκB-p65 subunit were determined by Western blot. Cells were collected by scraping and lysed with RIPA buffer containing 1% NP-40, 0.5% sodium deoxycholate, 0.1% SDS, and a protease inhibitor mixture (PMSF, aprotinin, and sodium orthovanadate). The total cell lysate (50 μg of protein) was separated by SDS-polyacrylamide gel electrophoresis (PAGE) (10% running, 4% stacking) and transferred onto a polyvinylidene fluoride membrane (Immobilon P, 0.45-μm pore size). The membrane was then incubated with the designated antibodies. Immunodetection was performed by using the Western-Light chemiluminescent detection system (Applied Biosystems, Foster City, Calif.).
The present study determined if C70PLY4 inhibits LPS-induced signaling, including protein ERK1/2 and NFκB-p65 subunit, in the human umbilical vein endothelial cells (HUVECs) by using western blot assay (FIG. 14, panel A). The cells were kept as control, treated with LPS (1 μg/mL) only for 24 h, or co-treated with LPS (1 μg/mL) and C70PLY4 (100, 300, and 500 nM) for 24 h and the protein phosphorylation of ERK1/2 and NFκB-p65 subunit were examined.

[4] = system: neointima formation of aorta; experiment: Neointima formation of aorta (HE stain) in STZ-treated HFD-fed rats; assay type: in vivo
Procedure: The ascending part of aorta were taken from mice, including control health mice and HFD induced diabetic mice, with and without treatment of C70PLY4, and kept in 10% formalin buffered for 24 h. The specimens were routinely embedded in paraffin blocks and cut in transversal sections (3 μm). The slides were stained with hematoxylin and eosin. The specimens were analyzed with light microscope.
The present study determined if C70PLY4 attenuates the status of atherosclerosis in HFD-fed rats.

HUVEC = experiment: Low shear stress experiment on HUVEC (morphology, F-actin immunofluorescence); assay type: cell-based, human; conditions: peptide pre-treatment 1 hour (100 mM), shear stress 4 dyn/cm^2 for 6 hours
Procedure: HUVEC was purchased by ScienCell Research Laboratories (CA, USA). The pellet was resuspended in M199 culture medium supplemented with penicillin/streptomycin and 20% fetal bovine serum (FBS), after which the cells were plated onto cell culture dishes. ECs were grown in Petri dishes for three days and then seeded onto glass slides pre-coated with rat tail type I collagen. Secondary cultures were used for the experiments within two days after reaching confluence (˜1-2×10^5 cells/cm^2).^12
HUVECs was mounted on a slide in a parallel-plate flow chamber, which was connected to a perfusion loop system (15). The system was kept in a constant-temperature, maintained at pH 7.4 by gassing with 5% CO2. The osmolality of the medium was kept in the range 285-295 mOsm/kg during perfusion. The flow channel width (w) was 1 cm and the channel height (h) was 0.025 cm. […]
After exposing to shear stress with or without peptide treatment, HUVECs were washed, fixed with 4% formaldehyde, and permeabilized by 1% Triton X-100 in PBS at 37° C. for 30 min. […] Intracytoplasmic F-actin immunofluorescence was detected by staining with phalloidin-fluorescein isothiocyanate (FITC) (1:1000 eBioscience) for 1 hr at room temperature, and cell nuclear stained with 4′,6-diamidino-2-phenylindole (DAPI) for 10 min at room temperature. Fluorescent cells were photographed by a fluorescence microscope with CCD (OLYMPUS).

Sequence: QDLTAHFTTSIPLKGNVRNLSVKIRECTGLAWEWWRTVYEKTDLPLVRKRTISIWGTTLYPQVEDKVEND [C70PLY4]
- blood glucose levels [1]: decreased blood glucose
- blood glucose level [2]: significantly decreases
- LPS-induced ERK1/2 phosphorylation [3]: significantly inhibited
- LPS-induced NFκB-p65 subunit phosphorylation [3]: significantly inhibited
- neointima formation of aorta induced by STZ [4]: significantly attenuated the status of neointima formation
- low shear stress induced cytoskeleton (F-actin) remodeling (HUVEC): almost block
- low shear stress induced morphological change (HUVEC): almost block
